Patent US9346761B2, “Arginine methyltransferase inhibitors and uses thereof” (Epizyme, Inc., priority 2013, dated 2016)

What was measured:
Full-length human PRMT8 = target: T1, Full-length human PRMT8 (Homo sapiens, UniProt Q9NR22); experiment: PRMT8 biochemical assay (3H-SAM Flashplate, peptide substrate)
T1 construct: Full-length human PRMT8 (NM_019854.4) isoform 1 transcript clone; made in house
Source text: General Materials. S-adenosylmethionine (SAM), S-adenosylhomocysteine (SAH), bicine, Tween20, dimethylsulfoxide (DMSO), bovine skin gelatin (BSG), isopropyl-β-D-thiogalactopyranoside (IPTG), and Tris(2-carboxyethyl)phosphine hydrochloride solution (TCEP) were purchased from Sigma-Aldrich at the highest level of purity possible. ^3H-SAM was purchase from American Radiolabeled Chemicals with a specific activity of 80 Ci/mmol. 384-well streptavidin Flashplates were purchased from PerkinElmer.
Substrates. Peptide representative of human histone H4 residues 31-45 was synthesized with an N-terminal linker-affinity tag motif and a C-terminal amide cap by 21st Century Biochemicals.
Protein Expression. E. coli (BL21(DE3) Gold, Stratagene) made competent by the CaCl2 method were transformed with the PRMT8 construct and ampicillin selection. Protein over-expression was accomplished by growing the PRMT8 expressing E. coli clone and inducing expression with 0.3 mM IPTG at 16° C. The culture was grown for 12 hours, harvested by centrifugation, and stored at −80° C. for purification.
Protein Purification. […] GST-tagged PRMT8 was eluted with 50 mM Tris, 2 mM glutathione, pH 7.8. Pooled fractions were cleaved by thrombin (10 U) and dialysed in buffer A. GST was removed by reloading the cleaved protein sample onto glutathione sepharose column and PRMT8 was collected in the flow-through fractions. PRMT8 was purified further by ceramic hydroxyapatite chromatography. The column was washed with 50 mM phosphate buffer, 100 mM NaCl, 5% glycerol, 5 mM β-mercaptoethanol, pH 7.8 and PRMT8 was eluted by 100 mM phosphate in the same buffer. Protein was concentrated and buffer was exchanged to 50 mM Tris, 300 mM NaCl, 10% glycerol, 5 mM β-mercaptoethanol, pH 7.8 by ultrafiltration.
General Procedure for PRMT8 Enzyme Assays on Peptide Substrates. The assays were all performed in a buffer consisting of 20 mM Bicine (pH=7.6), 1 mM TCEP, 0.005% BSG, and 0.002% Tween 20, prepared on the day of use. […] DMSO (1 ul) was added to Columns 11, 12, 23, 24, rows A-H for the maximum signal control and 1 ul of SAH, a known product and inhibitor of PRMT8, was added to columns 11, 12, 23, 24, rows I-P for the minimum signal control. A cocktail (40 ul) containing the PRMT8 enzyme was added by Multidrop Combi (Thermo-Fisher). The compounds were allowed to incubate with PRMT8 for 30 min at room temperature, then a cocktail (10 ul) containing ^3H-SAM and peptide was added to initiate the reaction (final volume=51 ul). […] The assays were stopped by the addition of non-radiolabeled SAM (10 ul) to a final concentration of 400 uM, which dilutes the ^3H-SAM to a level where its incorporation into the peptide substrate is no longer detectable. 50 ul of the reaction in the 384-well polypropylene plate was then transferred to a 384-well Flashplate and the biotinylated peptides were allowed to bind to the streptavidin surface for at least 1 hour before being washed once with 0.1% Tween20 in a Biotek ELx405 plate washer. The plates were then read in a PerkinElmer TopCount plate reader to measure the quantity of ^3H-labeled peptide bound to the Flashplate surface, measured as disintegrations per minute (dpm) or alternatively, referred to as counts per minute (cpm).
Where dpm=disintegrations per minute, cmpd=signal in assay well, and min and max are the respective minimum and maximum signal controls.
Where top and bottom are the normally allowed to float, but may be fixed at 100 or 0 respectively in a 3-parameter fit. The Hill Coefficient normally allowed to float but may also be fixed at 1 in a 3-parameter fit. Y is the % inhibition and X is the compound concentration.

Full-length human PRMT6 = target: T2, Full-length human PRMT6 (Homo sapiens, UniProt Q96LA8); experiment: PRMT6 biochemical assay (3H-SAM Flashplate, peptide substrate)
T2 construct: Flag-PRMT6-His was eluted with 200 ug/ml FLAG peptide in the same buffer; made in house; host or cells: HEK 293F cells (BacMam virus, pFastBacMam)
Outline: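 Read-out is 3H-methylated histone H4 (36-50) peptide bound to streptavidin Flashplates after a cold-SAM stop. Baculovirus-expressed Flag-PRMT6-His met compound for 30 min at room temperature before SAM and peptide; Bicine pH 7.6 buffer. IC50 fitted to % inhibition normalized to SAH (min) and DMSO (max).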

T1 sequence (Q9NR22 whole entry, canonical isoform): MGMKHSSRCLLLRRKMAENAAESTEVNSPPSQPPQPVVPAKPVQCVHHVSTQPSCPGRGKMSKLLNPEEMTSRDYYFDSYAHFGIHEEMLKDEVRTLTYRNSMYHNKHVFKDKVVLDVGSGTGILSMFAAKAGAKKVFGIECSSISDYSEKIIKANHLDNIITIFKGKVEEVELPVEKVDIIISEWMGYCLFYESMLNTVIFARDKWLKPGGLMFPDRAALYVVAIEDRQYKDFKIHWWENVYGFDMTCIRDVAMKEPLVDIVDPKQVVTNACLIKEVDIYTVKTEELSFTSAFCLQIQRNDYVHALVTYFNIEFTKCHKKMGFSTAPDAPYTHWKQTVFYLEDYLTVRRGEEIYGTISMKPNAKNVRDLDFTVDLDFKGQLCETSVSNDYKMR
T2 sequence (Q96LA8 with tags, fused parts or gaps): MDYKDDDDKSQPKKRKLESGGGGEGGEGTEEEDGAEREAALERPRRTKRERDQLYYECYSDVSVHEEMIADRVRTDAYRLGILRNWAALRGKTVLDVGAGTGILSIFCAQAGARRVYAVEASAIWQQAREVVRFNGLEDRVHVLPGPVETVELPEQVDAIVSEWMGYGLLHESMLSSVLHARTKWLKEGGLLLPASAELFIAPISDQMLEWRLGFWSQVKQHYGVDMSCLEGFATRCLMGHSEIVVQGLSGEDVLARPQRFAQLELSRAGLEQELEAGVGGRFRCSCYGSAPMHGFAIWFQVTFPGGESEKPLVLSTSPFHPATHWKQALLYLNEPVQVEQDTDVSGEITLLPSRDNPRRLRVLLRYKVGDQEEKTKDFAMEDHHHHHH

| Compound | IC50 (Full-length human PRMT8) [nM] | IC50 (Full-length human PRMT6) [nM] |
| --- | --- | --- |
| CN(CCN)Cc1n[nH]cc1-c1ccc(OC(F)(F)F)cc1 [Compound 105] | 101 to 1000 | < 100 |
| CN(CCN)Cc1c[nH]nc1-c1ccc(Cl)c(F)c1 [Compound 118] | 101 to 1000 | < 100 |
| COc1ccc(F)cc1-c1n[nH]cc1CN(C)CCN [Compound 160] | 3010 to 10000 | 101 to 1000 |
| CCn1ncc(CN(C)CCNC)c1-c1ccc(F)cc1 [Compound 7] | 3010 to 10000 | < 100 |
| CC(C)Oc1ccc(-c2c[nH]nc2CN(C)CCN)cc1F [Compound 144] | 101 to 1000 | < 100 |
| Cc1cccc(-c2n[nH]cc2CN(C)CCN)c1 [Compound 131] | 101 to 1000 | < 100 |
| CC(C)Oc1ccc(-c2n[nH]cc2CN(C)CCN)cc1F [Compound 97] | < 100 | < 100 |
| CN(CCN)Cc1c[nH]nc1-c1ccc(C(F)(F)F)c(Cl)c1 [Compound 117] | < 100 | < 100 |
| CN(CCN)Cc1c[nH]nc1-c1cccc(Cl)c1 [Compound 122] | 101 to 1000 | < 100 |
| Cc1ccc(F)cc1-c1n[nH]cc1CN(C)CCN [Compound 159] | 101 to 1000 | < 100 |
| CN(CCN)Cc1c[nH]nc1-c1ccc(OC2CC2)cc1 [Compound 114] | < 100 | < 100 |
| COc1ccc(-c2n[nH]cc2CN(C)CCN)c(C)c1 [Compound 155] | 101 to 1000 | < 100 |
| CCOc1ccc(-c2n[nH]cc2CN(C)CCN)cc1 [Compound 166] | 101 to 1000 | < 100 |
| COCCn1cc(CN(C)CCN)c(-c2ccc(F)cc2)n1 [Compound 5] | 3010 to 10000 | 101 to 1000 |
| CN(CCN)Cc1n[nH]cc1-c1ccc(OC(F)F)cc1 [Compound 138] | 101 to 1000 | < 100 |
| COc1ccc(-c2n[nH]cc2CN(C)CCN)c(C(F)(F)F)c1 [Compound 154] | 3010 to 10000 | 101 to 1000 |
| CN(CCN)Cc1c[nH]nc1-c1cc(F)cc(F)c1 [Compound 111] | 101 to 1000 | < 100 |
| CN(CCN)Cc1c[nH]nc1-c1ccc(F)c(Cl)c1 [Compound 124] | 101 to 1000 | < 100 |
| CC(C)Cc1ccc(-c2c[nH]nc2CN(C)CCN)cc1 [Compound 170] | 101 to 1000 | < 100 |
| CN(CCN)Cc1c[nH]nc1-c1cc(F)ccc1Cl [Compound 106] | 3010 to 10000 | < 100 |
| CCN(C)C(=O)c1ccc(-c2n[nH]cc2CN(C)CCN)cc1 [Compound 163] | 1010 to 3000 | < 100 |
| CN(CCN)Cc1c[nH]nc1-c1ccc(C(F)(F)F)cc1Cl [Compound 135] | 1010 to 3000 | < 100 |
| CN(CCN)Cc1c[nH]nc1-c1ccc(Cl)cc1 [Compound 95] | 101 to 1000 | < 100 |
| CN(CCN)Cc1n[nH]cc1-c1ccc(C2CC2)cc1 [Compound 104] | 101 to 1000 | < 100 |
| Cc1cc(Cl)ccc1-c1n[nH]cc1CN(C)CCN [Compound 133] | 101 to 1000 | < 100 |

| Compound | IC50 (Full-length human PRMT8) [nM] | IC50 (Full-length human PRMT6) [nM] |
| --- | --- | --- |
| Cc1cc(C#N)ccc1-c1n[nH]cc1CN(C)CCN [Compound 110] | 101 to 1000 | < 100 |
| Cc1[nH]nc(-c2ccc(F)cc2)c1CN(C)CCN [Compound 169] | 1010 to 3000 | < 100 |
| CC(C)CN(C)C(=O)c1ccc(-c2n[nH]cc2CN(C)CCN)cc1 [Compound 164] | 1010 to 3000 | < 100 |
| COc1ccc(Cl)cc1-c1n[nH]cc1CN(C)CCN [Compound 157] | 3010 to 10000 | 101 to 1000 |
| Cc1ccccc1-c1n[nH]cc1CN(C)CCN [Compound 161] | 1010 to 3000 | < 100 |
| COCCn1ncc(CN(C)CCN)c1-c1ccc(F)cc1 [Compound 6] |  | 101 to 1000 |
| CN(CCN1CCCC1)Cc1c[nH]nc1-c1ccc(C#N)cc1 [Compound 139] | > 10000 |  |
| CC(=O)c1cccc(-c2n[nH]cc2CN(C)CCN)c1 [Compound 112] | 101 to 1000 | < 100 |
| COc1cc(F)ccc1-c1n[nH]cc1CN(C)CCN [Compound 151] | 1010 to 3000 | 101 to 1000 |
| CN(CCN)Cc1n[nH]cc1-c1ccc(C2CCOCC2)cc1 [Compound 145] | 101 to 1000 | < 100 |
| COc1ccc(-c2n[nH]cc2CN(C)CCN)cc1 [Compound 153] | 101 to 1000 | < 100 |
| COc1ccc(-c2n[nH]cc2CN(C)CCN)c(F)c1 [Compound 107] | 101 to 1000 | < 100 |
| COc1ccc(-c2n[nH]cc2CN(C)CCN)cc1F [Compound 134] | 101 to 1000 | < 100 |
| COc1ccc(-c2n[nH]cc2CN(C)CCN)c(Cl)c1 [Compound 146] | 1010 to 3000 | < 100 |
| CN(CCN)Cc1c[nH]nc1-c1ccc(OCC(F)(F)F)cc1 [Compound 96] | 101 to 1000 | < 100 |
| CN(CCN)Cc1n[nH]cc1-c1ccc(Cl)cc1 [Compound 102] | 101 to 1000 | < 100 |
| Cc1ccc(-c2n[nH]cc2CN(C)CCN)cc1 [Compound 162] | 101 to 1000 | < 100 |
| Cc1cc(F)ccc1-c1n[nH]cc1CN(C)CCN [Compound 152] | 101 to 1000 | < 100 |
| CCn1cc(CN(C)CCNC)c(-c2ccc(F)cc2)n1 [Compound 8] | 3010 to 10000 | 101 to 1000 |
| CN(CCN)Cc1c[nH]nc1-c1cccc(Cl)c1F [Compound 123] | 101 to 1000 | < 100 |
| CN(CCN)Cc1c[nH]nc1-c1ccc(F)cc1F [Compound 99] | 1010 to 3000 | < 100 |
| CN(CCN)Cc1c[nH]nc1-c1ccccc1C#N [Compound 140] | 3010 to 10000 | 1010 to 3000 |
| CCOC(=O)c1cccc(-c2n[nH]cc2CN(C)CCN)c1 [Compound 150] | 101 to 1000 | < 100 |
| CN(CCN)Cc1c[nH]nc1-c1ccc(C(F)(F)F)cc1F [Compound 148] | 101 to 1000 | < 100 |
